According to publication PMC5339268, “Ganoderic Acid A Metabolites and Their Metabolic Kinetics” (Frontiers in Pharmacology, 2017):
Read-outs that look alike come from different tables or passages of the source.

Experiments:
CYP3A [1] = assay: Effect of CYP inhibitors on formation of GAA metabolites in RLMs; type: in vitro ADME; settings: rat, rat liver microsomes (RLMs), probe GAA (10 μM), formation of metabolite M2, RLMs 0.25 mg/ml, ketoconazole 10 μM
Description: (§1) GAA (10 μM) was incubated with 0.25 mg/ml RLMs or HLMs in the incubation system as described in Section Formation Kinetics of the Metabolites M2 and M4, in the present or absent of the following CYP enzymes inhibitors, 10 μM α- naphthoflavone (for CYP1A2), 100 μM ticlopidine (for CYP2C19), 10 μM quinidine (for CYP2D), 10 μM ketoconazole (for CYP3A), 100 μM fluconazole (for CYP2C9) and 100 μM diethyldithiocarbamate (for CYP2E1), respectively. The M2 and M4 formation rates in the present and absent of inhibitors were compared. The percentage of inhibition was calculated. Each of the incubations was performed in triplicate.

CYP3A [2] = assay: Effect of CYP inhibitors on formation of GAA metabolites in HLMs; type: in vitro ADME; settings: human, human liver microsomes (HLMs), probe GAA (10 μM), ketoconazole 10 μM
Description: as §1

EL4 syngeneic mice = test system: EL4 syngeneic mice; parameters: method as in Radwan et al., 2015; settings: ref Radwan et al., 2015, cited from earlier work
HepG2 cells = test system: HepG2 cells; parameters: method as in Yao et al., 2012; settings: ref Yao et al., 2012; cited from earlier work
[3] = test system: rat liver microsomes (RLMs); assay: In vitro metabolite identification, GAA incubated with RLMs; settings: for Detected resource 4, RLMs: 100 μM GAA, 1.0 mg protein/ml RLMs, NADPH and UDPGA, 37°C, 1 h
Description: (§2) For in vitro metabolites identification, the enzyme incubation was performed in a medium containing 1.0 mg protein /ml RLMs or HLMs, 100 μM of GAA, 3.3 mM of MgCl2, 3.0 mM of NADPH, 3.0 mM of UDPGA and 100 mM of sodium phosphate buffer (pH 7.4). The total volume was 500 μl. The metabolism reaction was initiated by adding NADPH and UDPGA after 10 min preincubation at 37°C. The reaction was maintained at 37°C for 1 h and terminated by adding with 500 μl of ice-cold acetonitrile. The mixture was centrifuged at 20,000 g for 15 min, and 10 μl of the supernatant was directly injected for HPLC-DAD-MS/MS assay. Control samples were prepared as described above by using inactivated enzymes in the incubation system. Each of the incubations was performed in duplicate.
(§3) The identification of metabolites were conducted by a HPLC-DAD-MS/MS system equipped with an Agilent 1,260 HPLC system (Agilent Technologies, Santa Clara, CA, USA), 1,260 diode array detector (DAD) and 4,500 Q-Trap mass spectrometer with electrospray ionization source (AB SCIEX, Framingham, MA, USA). Chromatographic separation was performed on a C18 column (100 × 4.6 mm, 2.4 μm, BDS hypersil, Thermo, PA) maintained at 40°C. The mobile phase consisted of acetonitrile (A) and 0.1% formic acid aqueous solution (B) with following gradient elution at a flow rate of 0.40 ml/min: 0–10 min, 20–35% A; 10–20 min, 35% A; 20–25 min, 35–65% A; 25–30 min, 65% A; 30–35 min, 65–20% A; and 35–45 min, 20% A. The DAD spectral data was collected from 190 to 400 nm. The injection volume of all the tested samples was 10 μl. Mass data were acquired in negative mode under the following conditions, ion spray voltage −4,500 V, ion source temperature 450°C, curtain gas 10 psi, nebulizer gas 60 psi and auxiliary gas 60 psi. Data were collected using Analyst 1.6.2 (Applied Biosystems) in both first quadrupole (Q1) mass scan mode and multiple reaction monitoring (MRM) independent data acquisition (IDA) mode using enhanced product ion scans (EPI) and enhanced resolution (ER) in the ion trap mode.

[4] = test system: human liver microsomes (HLMs); assay: In vitro metabolite identification, GAA incubated with HLMs; settings: for Detected resource 5, HLMs: 100 μM GAA, 1.0 mg protein/ml HLMs, NADPH and UDPGA, 37°C, 1 h
Description: as §2, §3

[5] = GAA metabolite identification in rat bile, plasma and urine after intravenous administration (HPLC-DAD-MS/MS); settings: for Detected resource 1, rat bile: rat bile 0–4 h after i.v. GAA 20 mg/kg; for Detected resource 2, rat plasma: rat plasma 5 and 30 min after i.v. GAA 20 mg/kg; for Detected resource 3, rat urine: rat urine 0–4 h after i.v. GAA 20 mg/kg
Description: Male Sprague-Dawley rats (200 ± 20 g) were supplied by Beijing Vital Laboratory Animal Technology (Beijing, China). The animal experiment was approved by the Animal Ethics Committee at the Institute of Medicinal Plant Development, Chinese Academy of Medical Sciences. […] On the day before the experiment, the rats were suffered with light surgeries. Under anesthesia by an intraperitoneal dose of 10% chloral hydrate at 3.50 ml/kg, a polyethylene catheter (0.50 mm ID, 1.00 mm OD, Portex Limited, Hythe, Kent, England) was cannulated into the right jugular vein for intravenous drug administration and blood collection, and another catheter (0.28 mm ID, 0.61 mm OD, Portex Limited, Hythe, Kent, England) was cannulated into the bile fistul for bile collection. After surgery, the rats were placed individually in metabolism cages and allowed to recover for at least 24 h. The rats were fasted over night with free access to water prior to drug administration.
GAA (25 mg) was dissolved in 500 μl of physiological saline containing 2% sodium carbonate and diluted with physiological saline to make the volume of 5 ml (Cheng C.-R. et al., [2013]). The solution was given to rats (n = 5) intravenously at 20 mg/kg through the jugular vein catheter. After dosing and blood sample collection, 0.2 ml of normal saline with 20 units of heparin was injected into the body through the catheter to flush the catheter and prevent blood coagulation.
Rats were held in metabolism cages, blood was collected into heparinized tubes from the jugular vein before (blank) and at 5 and 30 min post dosing, and then centrifuged at 1,500 g for 10 min for plasma separation. At the same time, bile and urine samples were collected before (blank) and over the period of 0–4 h post dosing. All of the collected blank plasma, blank bile, blank urine, dosing plasma, dosing bile or dosing urine from five rats were pooled together respectively and stored at −20°C until assay.
For plasma, an aliquot of 200 μl sample was mixed with 20 μl HCl solution (1 M), and then extracted with 1.5 ml of ethyl acetate by vortex-mixing for 10 min. The ethyl acetate layer was collected and concentrated to dryness by a vacuum concentrator. The residue was reconstituted in 100 μl 80% methanol and centrifuged at 20,000 g for 15 min. The supernatant was collected for HPLC-DAD-MS/MS assay. For bile, an aliquot of 150 μl sample was mixed with 150 μl 80% methanol and 10 μl 5% formic acid, and then centrifuged at 20,000 g for 15 min. The supernatant was collected for HPLC-DAD-MS/MS assay. For urine, an aliquot of 2 ml sample was loaded on a pretreated ODS-C18 cartridge (Agilent AccuBOND, 500 mg). After washing with 5 ml of water, the cartridge was eluted with 10 ml of methanol. The methanol eluate was collected and concentrated to dryness by a vacuum concentrator at 37°C. The residue was reconstituted in 200 μl 80% methanol and centrifuged at 20,000 g for 15 min, and the supernatant was collected for HPLC-DAD-MS/MS assay.
The identification of metabolites were conducted by a HPLC-DAD-MS/MS system equipped with an Agilent 1,260 HPLC system (Agilent Technologies, Santa Clara, CA, USA), 1,260 diode array detector (DAD) and 4,500 Q-Trap mass spectrometer with electrospray ionization source (AB SCIEX, Framingham, MA, USA). Chromatographic separation was performed on a C18 column (100 × 4.6 mm, 2.4 μm, BDS hypersil, Thermo, PA) maintained at 40°C. The mobile phase consisted of acetonitrile (A) and 0.1% formic acid aqueous solution (B) with following gradient elution at a flow rate of 0.40 ml/min: 0–10 min, 20–35% A; 10–20 min, 35% A; 20–25 min, 35–65% A; 25–30 min, 65% A; 30–35 min, 65–20% A; and 35–45 min, 20% A. The DAD spectral data was collected from 190 to 400 nm. The injection volume of all the tested samples was 10 μl. Mass data were acquired in negative mode under the following conditions, ion spray voltage −4,500 V, ion source temperature 450°C, curtain gas 10 psi, nebulizer gas 60 psi and auxiliary gas 60 psi.

[6] = test system: rat liver microsomes (RLMs); assay: Formation kinetics of the metabolites M2 and M4 in RLMs; type: in vitro ADME
Description: Each of the incubations was performed in triplicate.

[7] = test system: rat liver microsomes (RLMs)
Description: as §2, §3

[8] = test system: human liver microsomes (HLMs)
Description: as §2, §3

[9] = test system: human liver microsomes (HLMs); settings: for Vmax of metabolite formation from GAA: HLMs 0.25 mg protein/ml, GAA 1–50 μM, 30 min
Description: The formation kinetics of the two main reduction metabolites M2 (GAC2) and M4 (7β,15-dihydroxy-3,11,23-trioxo-lanost-26-oic acid) were determined. The incubations were performed in a medium (100 μl) containing 0.25 mg protein /ml RLMs or HLMs, different concentrations of GAA (1–50 μM), 3.3 mM of MgCl2, 3.0 mM of NADPH and 100 mM of sodium phosphate buffer (pH 7.4). After 10 min of preincubation, GAA at each concentration was incubated with RLMs and HLMs for 5 and 30 min, respectively. The reactions were terminated by adding with 100 μl of ice-cold acetonitrile containing 2 μM GLA used as internal standard (IS). After centrifugation, metabolites in the mixture were analyzed by UFLC-MS/MS detection as described below. The metabolite formation rates vs. GAA concentrations were plotted to obtain the Michaelis-Menten constant (Km) and maximum velocity (Vmax) values of the metabolic reactions. Each of the incubations was performed in triplicate.
The kinetic parameters of GAA metabolism by RLMs or HLMs were calculated by fitting the data to the hyperbolic Michaelis-Menten model: V=Vmax×[S]/Km+[S]
Where Vmax is the maximal velocity of formation, S is the concentration of substrate, Km is the substrate concentration of half maximal velocity, and the intrinsic clearance (CLint) is calculated as Vmax/Km.

## CC(=O)N1CCN(c2ccc(OCC3COC(Cn4ccnc4)(c4ccc(Cl)cc4Cl)O3)cc2)CC1 (stereo not shown) [Ketoconazole, ketoconazole]
CYP3A [1]
  inhibition at 10 μM: 19.9%
CYP3A [2]; formation of metabolite M2, HLMs 0.25 mg/ml, read-out: inhibition of the formation of M2 in HLMs
  inhibition at 10 μM: 56%
CYP3A [2]; formation of metabolite M4, HLMs 0.25 mg/ml, read-out: inhibition of the formation of M4 in HLMs
  inhibition at 10 μM: 38.2%

## C[C@H](CC(=O)C[C@@H](C)[C@H]1C[C@H](O)[C@@]2(C)C3=C(C(=O)C[C@]12C)[C@@]1(C)CCC(=O)C(C)(C)[C@@H]1C[C@@H]3O)C(=O)O [Metabolite M0, Ganoderic acid A]
EL4 syngeneic mice; EL4 syngeneic mice
  tumor metastasis to the liver: decrease tumor metastasis to the liver
EL4 syngeneic mice
  survival of EL4 syngeneic mice: significantly prolong the survival
HepG2 cells
  chemosensitivity of HepG2 cells to Cisplatin: enhance chemosensitivity
[3]
  Detected resource 4, RLMs: +
[4]
  Detected resource 5, HLMs: +
[5]
  Detected resource 1, rat bile: +
  Detected resource 2, rat plasma: +
  Detected resource 3, rat urine: +

## C[C@H](CC(=O)C[C@@H](C)[C@H]1C[C@H](O)[C@@]2(C)C3=C(C(=O)C[C@]12C)[C@@]1(C)CC[C@H](O)C(C)(C)[C@@H]1C[C@@H]3O)C(=O)O [Metabolite M2, Ganoderic acid C2]
[6]; RLMs 0.25 mg protein/ml, GAA 1–50 μM, 5 min
  Vmax of metabolite formation from GAA: 185.81 pmol/min/mg
[6]; ratio RLMs vs HLMs
  CLint by RLMs higher than by HLMs: 20 fold
  Vmax by RLMs higher than by HLMs: 6 fold
[7]
  relative abundance of metabolite in RLMs incubations: most abundant
[8]
  metabolite detected in HLMs incubations: detected
  relative abundance of metabolite in HLMs incubations: abundant
[9]
  Vmax of metabolite formation from GAA: 30.18 pmol/min/mg
[9]; human, pH 7.4
  Clint of metabolite formation from GAA (Vmax/Km): 0.33 µL/min/mg
[9]; in HLMs, ratio M2 vs M4
  Km of M2 higher than that of M4: 15 fold
[9]; ratio HLMs vs RLMs
  Km by HLMs higher than by RLMs: approximately 3 fold

## CC(CC(=O)CC(C)C1CC(O)C2(C)C3C(O)CC4C(C)(C)C(=O)CCC4(C)C3C(=O)CC12C)C(=O)O (stereo not drawn) [Metabolite M4, 7β,15-dihydroxy-3,11,23-trioxo-lanost-26-oic acid]
[7]
  metabolite found in RLMs incubations: undetected
[8]
  metabolite detected in HLMs incubations: detected
  relative abundance of metabolite in HLMs incubations: abundant
[9]
  Vmax of metabolite formation from GAA: 29.70 pmol/min/mg
[9]; human, pH 7.4
  CLint of M4 formation higher than that of M2: 15 fold
  Clint of metabolite formation from GAA (Vmax/Km): 4.85 µL/min/mg

## CC(CC(=O)C[C@@H](C)[C@H]1C[C@H](O)[C@@]2(C)C3=C(C(=O)C[C@]12C)[C@@]1(C)CCC(=O)C(C)(C)[C@@H]1CC3=O)C(=O)O (stereo partly shown) [Metabolite M7, Ganoderic acid J]
[5]
  Detected resource 1, rat bile: +
  Detected resource 2, rat plasma: +
  Detected resource 3, rat urine: +

## CC(CC(=O)CC(C)C1CC(O)C2(C)C3=C(C(=O)C(O)C12C)C1(C)CCC(=O)C(C)(C)C1CC3O)C(=O)O (stereo not shown) [Metabolite M9, 12-hydroxy ganoderic acid A]
[7]
  metabolite found in RLMs incubations: found
[8]
  metabolite detected in HLMs incubations: detected

## CC(CC(=O)CC(C)(O)C1CC(O)C2(C)C3=C(C(=O)CC12C)C1(C)CCC(=O)C(C)(C)C1CC3O)C(=O)O (stereo not shown) [Metabolite M11, 20-hydroxy ganoderic acid A]
[7]
  metabolite found in RLMs incubations: found
[8]
  metabolite detected in HLMs incubations: detected

## CC(CC(=O)CC(C)C1CC(O)C2(C)C3=C(C(=O)CC12C)C1(C)CCC(O)C(C)(CO)C1CC3O)C(=O)O (stereo not drawn) [Metabolite M13, 3,7β,15,28(29)-tetrahydroxy-11, 23-dioxo-lanost-8-en-26-oic acid]
[7]
  metabolite found in RLMs incubations: detected

## CC(CC(=O)CC(C)C1CC(O)C2(C)C3=C(C(=O)C(O)C12C)C1(C)CCC(O)C(C)(C)C1CC3O)C(=O)O (stereo not shown) [Metabolite M15, 12-hydroxy ganoderic acid C2]
[7]
  metabolite found in RLMs incubations: detected

## CC(CC(=O)C[C@@H](C)[C@H]1CC(=O)[C@@]2(C)C3=C(C(=O)C[C@]12C)[C@@]1(C)CC[C@H](O)C(C)(C)[C@@H]1C[C@@H]3O)C(=O)O (stereo partly shown) [Metabolite M18, Ganoderic acid B]
[5]
  Detected resource 1, rat bile: +
  Detected resource 2, rat plasma: +

## C[C@H](CC(=O)C[C@@H](C)[C@H]1C[C@H](O)[C@@]2(C)C3=C(C(=O)C[C@]12C)[C@@]1(C)CC[C@H](O[C@@H]2O[C@H](C(=O)O)[C@@H](O)[C@H](O)[C@H]2O)C(C)(C)[C@@H]1C[C@@H]3O)C(=O)O [Metabolite M25, Ganoderic acid C2 3-O-glucuronide]
[3]
  Detected resource 4, RLMs: +
  metabolite found in RLMs incubations: detected
[5]
  Detected resource 1, rat bile: +

## C[C@H](CC(=O)C[C@@H](C)[C@H]1C[C@H](O)[C@@]2(C)C3=C(C(=O)C[C@]12C)[C@@]1(C)CC[C@H](O)C(C)(C)[C@@H]1C[C@@H]3O[C@@H]1O[C@H](C(=O)O)[C@@H](O)[C@H](O)[C@H]1O)C(=O)O [Metabolite M26, Ganoderic acid C2 7-O-glucuronide]
[5]
  Detected resource 1, rat bile: +

## C[C@H](CC(=O)C[C@@H](C)[C@H]1C[C@H](O[C@@H]2O[C@H](C(=O)O)[C@@H](O)[C@H](O)[C@H]2O)[C@@]2(C)C3=C(C(=O)C[C@]12C)[C@@]1(C)CC[C@H](O)C(C)(C)[C@@H]1C[C@@H]3O)C(=O)O [Metabolite M27, Ganoderic acid C2 15-O-glucuronide]
[5]
  Detected resource 1, rat bile: +

## C[C@H](CC(=O)C[C@@H](C)[C@H]1C[C@H](O)[C@@]2(C)C3=C(C(=O)C[C@]12C)[C@@]1(C)CCC(=O)C(C)(C)[C@@H]1C[C@@H]3O[C@@H]1O[C@H](C(=O)O)[C@@H](O)[C@H](O)[C@H]1O)C(=O)O [Metabolite M28, Ganoderic acid A 7-O-glucuronide]
[3]
  Detected resource 4, RLMs: +
  metabolite found in RLMs incubations: found
[4]
  Detected resource 5, HLMs: +
[4]; HLMs incubations
  metabolite detected in HLMs incubations: detected
[5]
  Detected resource 1, rat bile: +
  Detected resource 2, rat plasma: +
  Detected resource 3, rat urine: +

## CC(CC(=O)C[C@@H](C)[C@H]1CC(O)[C@@]2(C)C3=C(C(O[C@@H]4O[C@H](C(=O)O)[C@@H](O)[C@H](O)[C@H]4O)C[C@]12C)[C@@]1(C)CCC(=O)C(C)(C)[C@@H]1CC3=O)C(=O)O (stereo partly shown) [Metabolite M29, 15-hydroxy-3,7,23-trioxo-lanost-8-en-26-oic acid-11-O-glucuronide]
[5]
  Detected resource 1, rat bile: +
  Detected resource 2, rat plasma: +
  Detected resource 3, rat urine: +

## C[C@H](CC(=O)C[C@@H](C)[C@H]1C[C@H](O[C@@H]2O[C@H](C(=O)O)[C@@H](O)[C@H](O)[C@H]2O)[C@@]2(C)C3=C(C(=O)C[C@]12C)[C@@]1(C)CCC(=O)C(C)(C)[C@@H]1C[C@@H]3O)C(=O)O [Metabolite M30, Ganoderic acid A 15-O-glucuronide]
[5]
  Detected resource 1, rat bile: +
  Detected resource 3, rat urine: +

## CC(CC(=O)C[C@@H](C)[C@H]1CC(O[C@@H]2O[C@H](C(=O)O)[C@@H](O)[C@H](O)[C@H]2O)[C@@]2(C)C3=C(C(O)C[C@]12C)[C@@]1(C)CCC(=O)C(C)(C)[C@@H]1CC3=O)C(=O)O (stereo partly shown) [Metabolite M31, 11-hydroxy-3,7,23-trioxo-lanost-8-en-26-oic acid-15-O-glucuronide]
[5]
  Detected resource 1, rat bile: +
  Detected resource 3, rat urine: +

## CC(CC(=O)CC(C)C1CC(O)C2(C)C3=C(C(=O)CC12C)C1(C)CCC(=O)C(C)(CO)C1CC3O)C(=O)O (stereo not shown) [Metabolite M35, 28(29)-hydroxy ganoderic acid A]
[8]
  metabolite detected in HLMs incubations: detected
